Reference: ChEMBL document CHEMBL5346973 (J Med Chem, 2023)
Calls of active or inactive are those of the source. The rule behind the calls is not given here.

How the values were obtained:
[1] = molecular target: Nicotinic acetylcholine receptor alpha9/alpha10 (Rattus norvegicus, UniProt P43144+Q9JLB5); test: Antagonist activity at rat alpha9alpha10 nACh receptor expressed in Xenopus oocyte assessed as inhibition of acetylcholine-induced response at -70 mV holding potential by voltage-clamp based electrophysiological assay; format: cell-based
Nicotinic acetylcholine receptor alpha9/alpha10, sequence (P43144 whole entry): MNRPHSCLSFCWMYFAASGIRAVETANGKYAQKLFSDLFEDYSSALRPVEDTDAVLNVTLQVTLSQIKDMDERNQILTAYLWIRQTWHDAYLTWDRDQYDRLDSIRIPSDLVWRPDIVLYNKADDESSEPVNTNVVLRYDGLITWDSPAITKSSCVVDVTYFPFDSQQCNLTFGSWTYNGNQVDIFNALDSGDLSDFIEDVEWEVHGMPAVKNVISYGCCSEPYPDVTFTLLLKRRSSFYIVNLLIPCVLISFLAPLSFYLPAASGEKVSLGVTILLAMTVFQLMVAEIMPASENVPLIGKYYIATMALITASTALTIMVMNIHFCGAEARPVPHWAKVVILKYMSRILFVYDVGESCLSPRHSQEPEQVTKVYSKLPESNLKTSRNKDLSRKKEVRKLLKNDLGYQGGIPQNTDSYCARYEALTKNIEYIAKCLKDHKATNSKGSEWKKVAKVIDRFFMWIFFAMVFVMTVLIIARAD
Nicotinic acetylcholine receptor alpha9/alpha10, sequence (Q9JLB5 whole entry): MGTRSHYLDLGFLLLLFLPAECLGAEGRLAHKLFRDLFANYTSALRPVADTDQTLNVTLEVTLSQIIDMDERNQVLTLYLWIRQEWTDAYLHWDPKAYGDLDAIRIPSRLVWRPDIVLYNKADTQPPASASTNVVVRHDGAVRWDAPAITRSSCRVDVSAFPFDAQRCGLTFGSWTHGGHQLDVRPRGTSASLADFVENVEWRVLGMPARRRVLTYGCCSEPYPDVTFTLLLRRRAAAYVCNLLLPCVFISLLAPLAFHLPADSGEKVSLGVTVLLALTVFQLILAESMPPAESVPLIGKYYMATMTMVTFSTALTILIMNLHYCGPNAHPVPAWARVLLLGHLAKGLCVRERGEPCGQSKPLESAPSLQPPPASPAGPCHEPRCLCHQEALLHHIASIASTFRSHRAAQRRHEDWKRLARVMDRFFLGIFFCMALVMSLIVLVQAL

[2] = molecular target: Neuronal acetylcholine receptor; alpha9/alpha10 (Homo sapiens, UniProt Q9GZZ6+Q9UGM1); test: Antagonist activity at human alpha9alpha10 nACh receptor expressed in Xenopus oocyte assessed as inhibition of acetylcholine-induced response at -70 mV holding potential by voltage-clamp based electrophysiological assay; format: cell-based
[3] = molecular target: Neuronal acetylcholine receptor subunit alpha-7 (Rattus norvegicus, UniProt Q05941); test: Antagonist activity at rat alpha7 nACh receptor expressed in Xenopus oocyte assessed as inhibition of acetylcholine-induced response at -70 mV holding potential by voltage-clamp based electrophysiological assay; format: cell-based
Neuronal acetylcholine receptor subunit alpha-7, sequence (Q05941 whole entry): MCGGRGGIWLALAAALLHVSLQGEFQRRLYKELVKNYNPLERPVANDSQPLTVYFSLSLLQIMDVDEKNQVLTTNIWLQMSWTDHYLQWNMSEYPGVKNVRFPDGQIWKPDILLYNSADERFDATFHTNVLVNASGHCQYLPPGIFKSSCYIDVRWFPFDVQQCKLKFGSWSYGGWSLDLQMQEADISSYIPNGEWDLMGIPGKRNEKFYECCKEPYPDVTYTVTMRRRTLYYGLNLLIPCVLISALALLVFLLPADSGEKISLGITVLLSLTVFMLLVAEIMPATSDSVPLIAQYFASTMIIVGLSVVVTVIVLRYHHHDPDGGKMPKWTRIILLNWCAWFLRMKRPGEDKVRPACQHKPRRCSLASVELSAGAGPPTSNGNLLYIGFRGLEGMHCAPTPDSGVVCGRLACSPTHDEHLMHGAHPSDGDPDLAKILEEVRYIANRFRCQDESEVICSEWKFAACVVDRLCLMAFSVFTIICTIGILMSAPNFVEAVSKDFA

[4] = molecular target: Nicotinic acetylcholine receptor alpha9/alpha10 (Rattus norvegicus) (UniProt P43144+Q9JLB5); test: Antagonist activity at rat alpha9alpha10 nACh receptor expressed in Xenopus oocyte assessed as inhibition of acetylcholine-induced response at -70 mV holding potential by measuring recovery at 10 nM after 5 mins by voltage-clamp based electrophysiological assay relative to control; format: cell-based; settings: filed as antagonist
[5] = molecular target: Neuronal acetylcholine receptor; alpha3/beta2 (Rattus norvegicus, UniProt P04757+P12390); test: Antagonist activity at rat alpha3beta2 nACh receptor expressed in Xenopus oocyte assessed as inhibition of acetylcholine-induced response at -70 mV holding potential by voltage-clamp based electrophysiological assay; format: cell-based
Neuronal acetylcholine receptor; alpha3/beta2, sequence (P04757 whole entry): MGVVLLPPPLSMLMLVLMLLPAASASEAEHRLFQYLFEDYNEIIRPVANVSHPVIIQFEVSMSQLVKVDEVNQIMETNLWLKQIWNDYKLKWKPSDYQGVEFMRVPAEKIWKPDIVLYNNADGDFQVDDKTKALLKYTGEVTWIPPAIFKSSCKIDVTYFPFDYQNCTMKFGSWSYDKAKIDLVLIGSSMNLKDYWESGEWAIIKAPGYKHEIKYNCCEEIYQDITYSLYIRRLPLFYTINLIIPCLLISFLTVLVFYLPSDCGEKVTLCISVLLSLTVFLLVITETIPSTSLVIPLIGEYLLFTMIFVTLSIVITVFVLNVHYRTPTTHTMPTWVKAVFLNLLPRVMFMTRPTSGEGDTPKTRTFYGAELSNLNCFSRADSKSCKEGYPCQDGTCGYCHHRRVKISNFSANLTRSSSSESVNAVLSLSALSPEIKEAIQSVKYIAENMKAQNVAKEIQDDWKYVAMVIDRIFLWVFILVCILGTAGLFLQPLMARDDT
Neuronal acetylcholine receptor; alpha3/beta2, sequence (P12390 whole entry): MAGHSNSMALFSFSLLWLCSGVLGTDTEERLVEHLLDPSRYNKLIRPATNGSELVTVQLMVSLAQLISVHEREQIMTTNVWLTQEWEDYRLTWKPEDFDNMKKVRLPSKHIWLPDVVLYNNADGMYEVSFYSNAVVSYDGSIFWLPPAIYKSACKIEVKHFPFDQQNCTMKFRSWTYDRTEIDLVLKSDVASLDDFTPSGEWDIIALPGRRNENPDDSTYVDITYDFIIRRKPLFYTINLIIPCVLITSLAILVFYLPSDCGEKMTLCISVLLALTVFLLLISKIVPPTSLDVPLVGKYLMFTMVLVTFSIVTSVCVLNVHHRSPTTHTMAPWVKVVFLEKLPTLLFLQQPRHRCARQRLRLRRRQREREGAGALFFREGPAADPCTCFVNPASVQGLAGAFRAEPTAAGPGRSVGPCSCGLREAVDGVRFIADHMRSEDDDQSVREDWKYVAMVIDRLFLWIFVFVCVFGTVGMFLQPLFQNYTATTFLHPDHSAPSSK

[6] = molecular target: Neuronal acetylcholine receptor; alpha3/beta4 (Rattus norvegicus, UniProt P04757+P12392); test: Antagonist activity at rat alpha3beta4 nACh receptor expressed in Xenopus oocyte assessed as inhibition of acetylcholine-induced response at -70 mV holding potential by voltage-clamp based electrophysiological assay; format: cell-based
Neuronal acetylcholine receptor; alpha3/beta4, sequence (P04757 whole entry): as the sequence (P04757 whole entry) above
Neuronal acetylcholine receptor; alpha3/beta4, sequence (P12392 whole entry): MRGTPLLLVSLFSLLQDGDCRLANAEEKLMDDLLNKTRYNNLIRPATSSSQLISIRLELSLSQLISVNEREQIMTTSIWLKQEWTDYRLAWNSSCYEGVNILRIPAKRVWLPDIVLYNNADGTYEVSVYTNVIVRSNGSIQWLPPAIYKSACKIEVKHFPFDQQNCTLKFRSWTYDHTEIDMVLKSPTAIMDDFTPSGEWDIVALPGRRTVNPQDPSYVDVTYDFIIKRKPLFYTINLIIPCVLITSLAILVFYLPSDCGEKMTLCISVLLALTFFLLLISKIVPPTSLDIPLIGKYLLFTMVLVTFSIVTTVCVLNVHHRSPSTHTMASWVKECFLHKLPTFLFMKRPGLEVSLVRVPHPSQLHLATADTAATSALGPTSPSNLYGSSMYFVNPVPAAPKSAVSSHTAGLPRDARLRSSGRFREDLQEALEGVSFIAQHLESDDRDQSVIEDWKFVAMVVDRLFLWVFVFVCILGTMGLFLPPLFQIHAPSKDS

[7] = molecular target: Nicotinic acetylcholine receptor alpha6/alpha3/beta4 (Rattus norvegicus, UniProt P04757+P12392+P43143); test: Antagonist activity at rat alpha6/alpha3beta4 nACh receptor expressed in Xenopus oocyte assessed as inhibition of acetylcholine-induced response at -70 mV holding potential by voltage-clamp based electrophysiological assay; format: cell-based
Nicotinic acetylcholine receptor alpha6/alpha3/beta4, sequence (P04757 whole entry): as the sequence (P04757 whole entry) above
Nicotinic acetylcholine receptor alpha6/alpha3/beta4, sequence (P12392 whole entry): as the sequence (P12392 whole entry) above
Nicotinic acetylcholine receptor alpha6/alpha3/beta4, sequence (P43143 whole entry): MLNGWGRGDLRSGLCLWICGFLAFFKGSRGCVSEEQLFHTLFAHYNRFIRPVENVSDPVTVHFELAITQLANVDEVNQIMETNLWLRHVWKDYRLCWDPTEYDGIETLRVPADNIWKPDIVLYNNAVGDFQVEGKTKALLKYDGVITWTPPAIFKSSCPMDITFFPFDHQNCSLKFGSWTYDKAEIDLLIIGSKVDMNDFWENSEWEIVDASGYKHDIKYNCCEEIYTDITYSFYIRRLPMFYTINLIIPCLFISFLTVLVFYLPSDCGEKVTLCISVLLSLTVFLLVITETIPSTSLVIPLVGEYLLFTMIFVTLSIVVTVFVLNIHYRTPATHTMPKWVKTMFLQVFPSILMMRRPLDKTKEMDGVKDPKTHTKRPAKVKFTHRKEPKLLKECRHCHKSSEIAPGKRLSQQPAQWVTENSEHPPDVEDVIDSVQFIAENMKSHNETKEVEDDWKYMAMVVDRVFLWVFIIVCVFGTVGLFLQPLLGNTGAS

[8] = molecular target: Neuronal acetylcholine receptor; alpha2/beta2 (Rattus norvegicus, UniProt P12389+P12390); test: Antagonist activity at rat alpha2beta2 nACh receptor expressed in Xenopus oocyte assessed as inhibition of acetylcholine-induced response at -70 mV holding potential by voltage-clamp based electrophysiological assay; format: cell-based
[9] = molecular target: Neuronal acetylcholine receptor; alpha4/beta2 (Rattus norvegicus, UniProt P09483+P12390); test: Antagonist activity at rat alpha4beta2 nACh receptor expressed in Xenopus oocyte assessed as inhibition of acetylcholine-induced response at -70 mV holding potential by voltage-clamp based electrophysiological assay; format: cell-based
[10] = molecular target: Neuronal acetylcholine receptor; alpha2/beta4 (Rattus norvegicus, UniProt P12389+P12392); test: Antagonist activity at rat alpha2beta4 nACh receptor expressed in Xenopus oocyte assessed as inhibition of acetylcholine-induced response at -70 mV holding potential by voltage-clamp based electrophysiological assay; format: cell-based
[11] = molecular target: Neuronal acetylcholine receptor; alpha4/beta4 (Rattus norvegicus, UniProt P09483+P12392); test: Antagonist activity at rat alpha4beta4 nACh receptor expressed in Xenopus oocyte assessed as inhibition of acetylcholine-induced response at -70 mV holding potential by voltage-clamp based electrophysiological assay; format: cell-based
[12] = molecular target: T1, Neuronal acetylcholine receptor; alpha9/alpha10 (Homo sapiens) (UniProt Q9UGM1+Q9GZZ6); test: Antagonist activity at human alpha9alpha10 nACh receptor expressed in Xenopus oocyte assessed as inhibition of acetylcholine-induced response at -70 mV holding potential by measuring current response at 10 nM by voltage-clamp based electrophysiological assay; format: cell-based; settings: filed as antagonist
[13] = molecular target: T1, Neuronal acetylcholine receptor; alpha9/alpha10 (Homo sapiens); test: Antagonist activity at human alpha9alpha10 nACh receptor expressed in Xenopus oocyte assessed as inhibition of acetylcholine-induced response at -70 mV holding potential by measuring leftward shit in concentration response curve at 10 nM by voltage-clamp based electrophysiological assay; format: cell-based; settings: filed as antagonist
[14] = Stability of the compound in human serum assessed as compound remaining after 6 hr by UPLC analysis; format: ADME, cell-free

Row | SMILES | IC50 [1] | IC50 [2] | IC50 [3] | Activity [4] | IC50 [5] | IC50 [6] | IC50 [7] | IC50 [8] | IC50 [9] | IC50 [10] | IC50 [11] | inhibition [12] | inhibition [13] | Stability [14]
1 | CC(C)[C@H](NC(=O)[C@@H]1CSSC[C@H](NC(=O)[C@@H](N)[C@@H](C)O)C(=O)N[C@@H](CCCNC(=N)N)C(=O)N[C@@H](CO)C(=O)N[C@@H](CO)C(=O)NCC(=O)N[C@@H](CCCNC(=N)N)C(=O)N[C@@H](Cc2ccc(O)cc2)C(=O)N[C@H]2CSSC[C@H](NC(=O)[C@H](Cc3ccc(O)cc3)NC(=O)[C@H](CCCNC(=N)N)NC(=O)[C@H](CCCNC(=N)N)NC(=O)[C@H](CCCNC(=N)N)NC(=O)[C@H](CCCNC(=N)N)NC(=O)[C@H](CC(=O)O)NC(=O)[C@H](Cc3ccc(O)cc3)NC(=O)[C@@H]3CCCN3C(=O)[C@H](CO)NC(=O)[C@H](CCCNC(=N)N)NC2=O)C(=O)N[C@@H](CCCNC(=N)N)C(=O)N[C@@H](CCCNC(=N)N)C(=O)N[C@@H](C)C(=O)N[C@@H]([C@@H](C)O)C(=O)N[C@@H](CC(=O)O)C(=O)N[C@@H](C)C(=O)N1)C(=O)O | 0.0014 µM | 0.011 µM | 1.36 µM | Active | 1.46 µM | 6.03 µM | 4.01 µM | 2.99 µM | 3.15 µM | 3.65 µM | 8.24 µM | 60% | Active | Stable
2 | CC[C@H](C)[C@@H]1NC(=O)[C@H](CCCNC(=N)N)NC(=O)[C@H](CCCNC(=N)N)NC(=O)[C@@H](NC(=O)[C@H](Cc2ccc(O)cc2)NC(=O)[C@H](CCCNC(=N)N)NC(=O)[C@H](C)NC(=O)[C@H](CCCNC(=N)N)NC(=O)[C@H](CCCNC(=N)N)NC(=O)[C@H](CC(=O)O)NC(=O)[C@H](Cc2ccc(O)cc2)NC(=O)[C@@H]2CCCN2C(=O)[C@H](CO)NC(=O)[C@H](CCCNC(=N)N)NC(=O)[C@@H]2CSSC[C@H](NC(=O)[C@@H](N)[C@@H](C)O)C(=O)N[C@@H](CCCNC(=N)N)C(=O)N[C@@H](CO)C(=O)N[C@@H](CO)C(=O)NCC(=O)N[C@@H](CCCNC(=N)N)C(=O)N[C@@H](Cc3ccc(O)cc3)C(=O)N2)CSSC[C@@H](C(=O)N[C@H](C(=O)O)C(C)C)NC(=O)[C@H](C)NC(=O)[C@H](CC(=O)O)NC(=O)[C@H]([C@@H](C)O)NC1=O | 0.027 µM | – | 4.48 µM | – | – | – | – | – | – | – | – | – | – | Stable
